Assay [1] concerns PAO, PAO mutS, PA40, PA34. The assay is described as follows: Planktonic susceptibility of all strains used in the BioFlux device. Format: cell-based, Pseudomonas aeruginosa. The method, then:
(§1) Two CF isolates, PA34 (smooth phenotype) and PA40 (mucoid phenotype), and the 2 reference strains PAO and PAO mutS were tested with the BioFlux device. None of the clinical strains were hypermutators.
(§2) Planktonic and biofilm susceptibility of the strains established in the Calgary device and used in the BioFlux device are described in Table 12.

In assay [2] the test system is PAO mutS. As to the kind of experiment: Planktonic susceptibility (MIC), PAO mutS. Format: cell-based, Pseudomonas aeruginosa. How it is done: as §1, §2
Assay [3] deals with Pseudomonas aeruginosa isolates from respiratory samples of people with cystic fibrosis growing in biofilms. The assay is classed as cell-based. The settings on record: biofilm, Calgary device, CF isolates. The text has this:
Two types of assays, an open and a closed system, were used to evaluate the in vitro activity on biofilms. The closed or static system based on the Calgary device (Diez-Aguilar M et al., Antimicrob Agents Chemother. 2018, 62, e01650-17, doi: 10.1128/AAC.01650-17, Moskowitz S M et al., J. Clin. Microbiol. 2004, 42, 1915-1922) analyzes biofilm formation in the wells of microtiter plates and is suitable for high-throughput analysis, obtaining pharmacodynamics (PD) parameters, while the open or dynamic system using the BioFlux device (Benoit M R et al., Appl. Environ. Microbiol. 2010, 76, 4136-4142) better resembles the in vivo conditions.
(§3) To perform biofilm tests with the Calgary device, fifty-three Pseudomonas aeruginosa isolates from respiratory samples of people with cystic fibrosis were selected among the 414 Pseudomonas aeruginosa of the iABC-collection (Ekkelenkamp M B et al., Antimicrob. Agents Chemother. 2019, 64, 1-7). A representative number of isolates from Northern Ireland, Spain, the Netherlands, and Australia were chosen, including different morphotyes: 18 smooth, 11 mucoid, 11 rough, 10 metallic, and 3 small colony variants. As control strains, the PAO (most commonly used strain for research on this ubiquitous and metabolically versatile opportunistic pathogen, Klockgether J et al., Journal of Bacteriology 2010, 192, 1113-1121) and its hypermutator derivative, PAO mutS strains were used (Oliver A et al., Antimicrob. Agents Chemother. 2004, 48, 4226-33).
(§4) This assay was performed as previously described but with minimal variations (Benoit M R et al., Appl. Environ. Microbiol. 2010, 76, 4136-4142) (FIG. 3). Briefly, a 0.5 McFarland culture was transferred to a flat-bottom 96-well microtiter plate (Nalge Nunc International, Rochester, New York, USA). Bacterial biofilm was formed around the pegs of a modified polystyrene microtiter lid. This lid with pegs was immersed into a growth plate and incubated for 20 h at 37° C. After rinsing the pegs 3 times in saline solution they were placed onto the antimicrobial in BBL™ Mueller-Hinton II cation-adjusted broth (MHB) (Becton, Dickinson and Company, Sparks, MD, USA) and incubated for 20 h at 37° C. […] After this incubation, the biofilm was recovered centrifuging (800 RPM/10 min) the peg lid in an antibiotic-free MHB filled-microtiter plate. The minimal biofilm inhibitory concentration (MBIC) was calculated after measuring the optical density (OD) (450 nm) before and after 6-hour incubation. Biofilm growth was defined as a mean OD difference of ≥0.05. […] The minimal biofilm eradication concentration (MBEC) was defined as the lowest concentration that prevents visible growth in the biofilm recovery medium after 18 h of the microtiter plate incubation (Ceri H et al., J. Clin. Microbiol. 1999, 37, 1771; Macià M D et al., Enferm. Infecc. Microbiol. Clin. 2018, 36, 375-381).
MBIC and the MBEC are used to determine the anti-biofilm antibiotic in vitro efficacy. MBIC is the lowest concentration at which there is no time-dependent increase in the mean number of biofilm viable cells comparing an early with a later exposure time, while the MBEC indicates the eradication (partly or completely) of biofilm viable cells (Thieme L et al., Biol. Proced. Online 2019, 21, 1-5).

Assay [4] has as its system Pseudomonas aeruginosa isolates from respiratory samples of people with cystic fibrosis. As to the kind of experiment: Planktonic susceptibility (MIC) of CF isolates. The assay is classed as cell-based.
From the text: as §3

Assay [5] relates to PA40 (mucoid phenotype). The assay is classed as cell-based, Pseudomonas aeruginosa. The settings on record: PA40. How it is done: as §1, §4, §2
Assay [6] relates to PAO. Format: cell-based, Pseudomonas aeruginosa. The settings on record: PAO. How it is done: as §1, §4, §2
For assay [7], the system named is PA34 (smooth phenotype). Format: cell-based, Pseudomonas aeruginosa. The settings on record: PA34. The method, then:
as §1, §4, §2

Assay [8] concerns PAO mutS. The assay is classed as cell-based, Pseudomonas aeruginosa. The method, then:
as §1, §4, §2

The test system of assay [9] is PA40 (mucoid phenotype). As to the kind of experiment: microbe, parasite or virus in culture. The assay is classed as cell-based, Pseudomonas aeruginosa. The settings on record: PA40. How it is done:
as §1, §2

The subject of assay [10] is PAO. As to the kind of experiment: microbe, parasite or virus in culture. The assay is classed as cell-based, Pseudomonas aeruginosa. The settings on record: PAO. How it is done:
as §1, §2

Assay [11] deals with PA34 (smooth phenotype). As to the kind of experiment: microbe, parasite or virus in culture. Format: cell-based, Pseudomonas aeruginosa. The settings on record: PA34. How it is done: as §1, §2
The mark [12] stands for this setting: Pseudomonas aeruginosa, read-out: MIC50.
Where [13] appears, read: Pseudomonas aeruginosa, read-out: MIC90.
The mark [14] stands for this setting: Pseudomonas aeruginosa, read-out: MIC.

For orientation: MIC50 means an inhibitory concentration at the 50% level, which refers to growth in some studies and to a panel of isolates in others. Usually MIC90 stands for the lowest concentration that inhibits either 90% of growth or 90% of the strains tested, depending on the study.

Converted amounts (≈) assume the structure as drawn. Read-outs that look alike come from different tables or passages of the source. Where only a bound is given, the exact number is not on record here.

Regarding `NC[C@H]1O[C@H](O[C@H]2[C@H](O)[C@@H](O[C@H]3O[C@H](CO)[C@@H](O)[C@H](N)[C@H]3O)[C@H](N)C[C@@H]2N)[C@H](N)C[C@@H]1O` [tobramycin], the MIC in [1] (Pseudomonas aeruginosa) came out at 2 µg/mL (≈ 4.28 µM); against PAO mutS [2] (Pseudomonas aeruginosa) it was 2 µg/mL (≈ 4.28 µM); in the assay with PA40 (mucoid phenotype) [9] (setting [14]), 0.5 µg/mL (≈ 1.07 µM); in the assay with PAO [10] (setting [14]) it was 0.5 µg/mL (≈ 1.07 µM); in the assay on PA34 (smooth phenotype) [11] (setting [14]), 0.25 µg/mL (≈ 0.535 µM). In [3], the MBEC50 is 8 mg/L. For the same compound, in [3], the MBEC90 came to 256 mg/L. Besides, the MBEC range in assay [3] was ≤0.5 to 512 mg/L. The compound further returned an MBIC50 in [3] of 2 mg/L. For the same compound, the MBIC90 in assay [3] is 32 mg/L. Further, the MBIC range in assay [3] was ≤0.5 to 512 mg/L. Further, in [4], the MIC range is ≤0.5 to 256 µg/mL. Moreover, in [4] (setting [12]), the MIC50 was determined as 2 µg/mL (≈ 4.28 µM). The MIC90 in assay [4] (setting [13]) came to 16 µg/mL (≈ 34.2 µM). Moreover, the MBEC with PA40 (mucoid phenotype) [5] was 4 mg/L; in the assay with PAO [6] it was 16 mg/L; in the assay on PA34 (smooth phenotype) [7] it was 2 mg/L; in the assay on PAO mutS [8], 32 mg/L. The MBIC is 2 mg/L with PA40 (mucoid phenotype) [5], 2 mg/L in the assay on PAO [6], 2 mg/L in the assay with PA34 (smooth phenotype) [7] and 16 mg/L in the assay on PAO mutS [8].

colistin had an MIC in assay [1] (all tested strains susceptible) of 2 µg/mL. Besides, in the assay with PAO mutS [2] (PAO mutS), the MIC turned out to be 1 µg/mL. Besides, in assay [3], the MBEC50 was determined as 64 mg/L, the MBEC90 was 128 mg/L, the MBEC range was ≤0.5 to 256 mg/L and the MBIC50 came to 8 mg/L. For the same compound, in [3], the MBIC90 is recorded as 64 mg/L and the MBIC range was ≤0.5 to 256 mg/L. In addition, in [4], the MIC50 stood at 1 µg/mL, the MIC90 turned out to be 4 µg/mL and the MIC range is ≤0.5 to 16 µg/mL. Also, in the assay with PA40 (mucoid phenotype) [5], the MBEC came out at 32 mg/L and the MBIC amounted to 32 mg/L. In the assay with PAO [6], this compound registered an MBEC of 128 mg/L and an MBIC of 64 mg/L. For the same compound, in the assay with PA34 (smooth phenotype) [7], the MBEC was determined as 128 mg/L and the MBIC was found to be 32 mg/L. In the assay with PAO mutS [8], this compound came in with an MBEC of 256 mg/L and an MBIC of 256 mg/L. The compound also had an MIC against PA40 (mucoid phenotype) [9] of 0.5 µg/mL. In the assay with PAO [10], this compound returned an MIC of 1 µg/mL. Further, in the assay with PA34 (smooth phenotype) [11], the MIC amounted to 2 µg/mL.

Consider `C[C@H]1[C@H](NC(=O)/C(=N\OC(C)(C)C(=O)O)c2csc(N)n2)C(=O)N1S(=O)(=O)O` [aztreonam], for which the MIC with PAO mutS [2] (Pseudomonas aeruginosa) stood at 64 µg/mL (≈ 147 µM); in the assay with PA40 (mucoid phenotype) [9] (setting [14]), 16 µg/mL (≈ 36.7 µM); in the assay with PAO [10] (setting [14]), 4 µg/mL (≈ 9.19 µM); in the assay on PA34 (smooth phenotype) [11] (setting [14]), 0.5 µg/mL (≈ 1.15 µM). Besides, the MBEC50 in assay [3] was 512/>512 mg/L. The MBEC90 in [3] was 512/>512 mg/L. In [3], the MBIC50 is given as 32 mg/L. Also, in assay [3], the MBIC90 is listed as > 512 mg/L. The MIC range in [4] lay in the range of 0.5 to 512 µg/mL. In assay [4] (setting [12]), the MIC50 was 4 µg/mL (≈ 9.19 µM). Also, the MIC90 in assay [4] (setting [13]) is 256 µg/mL (≈ 588 µM). Moreover, the MBEC is >256 mg/L in the assay with PA40 (mucoid phenotype) [5], >256 mg/L in the assay with PAO [6], 256 mg/L with PA34 (smooth phenotype) [7] and >256 mg/L in the assay with PAO mutS [8]. For the same compound, the MBIC with PA40 (mucoid phenotype) [5] is given as 32 mg/L; with PAO [6], >256 mg/L; in the assay on PA34 (smooth phenotype) [7] it was 8 mg/L; with PAO mutS [8], >256 mg/L.
